Assay results from patent publication US20110171160A1, “POLYMER CONJUGATES OF KISS1 PEPTIDES” (Nektar Therapeutics, priority 2008, published 2011).
No end group written: not given here.

Molecular target: T1, human GPR54 (Homo sapiens, UniProt Q969F8)
T1 construct: host or cells: Chem-1 host cells, with the promiscuous G protein Galpha15 (Gal 5 [sic])
Assay: FLIPR calcium flux agonist assay on GPR54-expressing Chem-1 cell line
Type: cell-based
Details: time of release n/a (no release incubation); for EC50: read-out: EC50 (nM) of agonist activation at GPR54
Procedure: A FLIPR assay was conducted to screen Kisspeptin and PEG-Kisspeptin peptides for dose-dependent agonist activities on the GP[…]-Protein coupled receptor. […] All compounds were diluted in their storage solvents to produce 250× (of the top dose listed below) master stock solutions. Compounds were then transferred from their master stock solutions into a daughter plate that was used in the assay. Each 250× solution was diluted into assay buffer (1×HBSS with 20 mM HEPES and 2.5 mM Probenecid) to obtain the final top test concentration. Calcium flux agonist assay: Chemicon's cloned human GPR54-expressing cell line is made in the Chem-1 host, which supports high levels of recombinant GPR54 expression on the cell surface and contains high levels of the promiscuous G protein Gal 5 to couple the receptor to the calcium signaling pathway. […] Reference agonist was handled as mentioned above, serving as assay control. Assay was read for 180 seconds using the FLIPR^TETRA. All plates were subjected to appropriate baseline corrections. Once baseline corrections were processed, maximum fluorescence values were exported and data manipulated to calculate percentage activation and Z'. Dose response curves were generated using GraphPad Prism. The curves were fit by utilizing sigmoidal dose response (variable slope) fitting with the bottom parameter fixed at 0 (FIGS.

T1 sequence (Q969F8 whole entry): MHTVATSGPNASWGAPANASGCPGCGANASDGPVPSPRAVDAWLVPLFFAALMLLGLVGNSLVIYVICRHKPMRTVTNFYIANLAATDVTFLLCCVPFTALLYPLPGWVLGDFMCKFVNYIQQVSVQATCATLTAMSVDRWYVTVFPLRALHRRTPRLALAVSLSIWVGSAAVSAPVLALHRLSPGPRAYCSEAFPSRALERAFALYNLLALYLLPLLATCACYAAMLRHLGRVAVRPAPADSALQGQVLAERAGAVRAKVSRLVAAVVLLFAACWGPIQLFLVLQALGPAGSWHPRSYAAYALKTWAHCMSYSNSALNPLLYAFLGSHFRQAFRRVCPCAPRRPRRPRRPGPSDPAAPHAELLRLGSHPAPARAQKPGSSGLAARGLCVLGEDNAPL

**Q.** For `CC(C)C[C@H](NC(=O)CNC(=O)[C@H](Cc1ccccc1)NC(=O)[C@H](CO)NC(=O)[C@H](CC(N)=O)NC(=O)[C@H](Cc1c[nH]c2ccccc12)NC(=O)[C@H](CC(N)=O)NC(=O)[C@H](Cc1ccc(O)cc1)NC(=O)[C@H](CC(N)=O)NC(=O)[C@@H]1CCCN1C(=O)[C@@H](N)CC(C)C)C(=O)N[C@@H](CCCNC(=N)N)C(=O)N[C@@H](Cc1ccccc1)C(N)=O` [KP13], which “Fold change compared to metastin” value is on record?
**A.** The value was 1 fold.

**Q.** And the EC50?
**A.** The EC50 was 11 nM.

**Q.** How did the “EC50 (nM) of agonist activation at GPR54” value turn out when “Ald40K-KP54: Kisspeptin-54 mono-PEGylated with mPEG2-ButyrAldehyde-40K by reductive amination (stable conjugate) (GTSLSPPPESSGSPQQPGLSAPHSRQIPAPQGAVLVQREKDLPNYNWNSFGLRF-NH2; also: mono-PEGylated with mPEG2-butyraldehyde 40K by reductive amination, site not given here; UniProt Q15726 68-121, looked up)” was run?
**A.** Its value is “No activity”.

**Q.** What does the source list for `CC(C)C[C@H](NC(=O)CNC(=O)[C@H](Cc1ccccc1)NC(=O)[C@H](CO)NC(=O)[C@H](CC(N)=O)NC(=O)[C@H](Cc1c[nH]c2ccccc12)NC(=O)[C@H](CC(N)=O)NC(=O)[C@@H](N)Cc1ccc(O)cc1)C(=O)N[C@@H](CCCNC(=N)N)C(=O)N[C@@H](Cc1ccccc1)C(N)=O` [KP10]?
**A.** Fold change compared to metastin: 1 fold; EC50: 10 nM

**Q.** Which “EC50 (nM) of agonist activation at GPR54” value does the source give for “Ald30K-KP13: Kisspeptin-13 mono-PEGylated with linear mPEG-ButyrALD-30K by reductive amination (stable conjugate) (LPNYNWNSFGLRF; also: mono-PEGylated with mPEG-butyraldehyde 30K by reductive amination, site not given here; UniProt Q15726 109-121, looked up)” here?
**A.** Its value is “No activity”.

**Q.** What does the source list for “GTSLSPPPESSGSPQQPGLSAPHSRQIPAPQGAVLVQREKDLPNYNWNSFGLRF-NH2 [KP54]”?
**A.** Fold change compared to metastin: 16 fold; EC50: 190 nM
